How the values were obtained:
Type in all cases: cell-based, human
[1] = test system: HCT116 (colorectal carcinoma, K Ras G13D) cells; assay: Cell proliferation (Alamar Blue) assay, HCT116; details: Homo sapiens, HCT-116, HCT116 cells
Outline: (§1)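 Fluorescence read-out (ex 540 nm, em 590 nm) after 1-3 h with 1× Alamar Blue, following 72 h compound exposure at 37° C./5% CO2. Compounds tested at typically 0.0005 to 10 uM, 3-fold steps; IC50 by sigmoidal dose-response (variable slope).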

[2] = test system: HT-29 (colorectal carcinoma, B-RafV600E) cells; assay: Cell proliferation (Alamar Blue) assay, HT-29; details: Homo sapiens, HT-29, HT29 cells
Outline: as §1

[3] = test system: phosphorylation of RSK1(S380) (the downstream target of ERK1/2); assay: Phospho-RSK1(S380) ELISA assay in HT-29 cells; details: Homo sapiens, HT-29, HT29 cells, phospho-RSK1(S380); read-out: Mechanistic Cell Assay RSK1 Phos HT29 IC50
Outline: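 HT-29 colorectal carcinoma cells (B-RafV600E), plated overnight at 37° C./5% CO2, were treated with compound dilutions for 2 h. Lysates were analysed by phospho-RSK1(Ser380) sandwich ELISA with absorbance at 450 nm. IC50 came from a sigmoidal variable-slope dose-response fit.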

SMILES | IC50 [1] | IC50 [2] | IC50 [3]
Cc1cnc(Nc2ccc(F)c(C(=O)N3CCN(C)CC3)c2)nc1-n1ccc(C(=O)NC(CO)c2cccc(Cl)c2)c1 (stereo not drawn) [Example 179, N-(1-(3-chlorophenyl)-2-hydroxyethyl)-1-(2-((4-fluoro-3-(4-methylpiperazine-1-carbonyl)phenyl)amino)-5-methylpyrimidin-4-yl)-1H-pyrrole-3-carboxamide] | 500 to 2500 nM | 500 to 2500 nM | 500 to 2500 nM
Cc1cnc(Nc2ccccc2)cc1-n1cnc(C(=O)NC(CO)c2cccc(Cl)c2)c1 (stereo not drawn) [Example 180, N-(1-(3-chlorophenyl)-2-hydroxyethyl)-1-(5-methyl-2-(phenylamino)pyridin-4-yl)-1H-imidazole-4-carboxamide] | > 2500 nM | 500 to 2500 nM | 250 to 500 nM
COc1cc(C(=O)N2CCOCC2)c(F)cc1Nc1ncc(C)c(-n2ccc(C(=O)NC(CO)c3cccc(Cl)c3)c2)n1 (stereo not drawn) [Example 181, N-(1-(3-chlorophenyl)-2-hydroxyethyl)-1-(2-((5-fluoro-2-methoxy-4-(morpholine-4-carbonyl)phenyl)amino)-5-methylpyrimidin-4-yl)-1H-pyrrole-3-carboxamide] | > 2500 nM | > 2500 nM | 500 to 2500 nM
Cc1cc(Nc2ncc(C)c(-n3ccc(C(=O)NC(CO)c4cccc(Cl)c4)c3)n2)ccc1C1CCNCC1 (stereo not drawn) [Example 182, N-(1-(3-chlorophenyl)-2-hydroxyethyl)-1-(5-methyl-2-((3-methyl-4-(piperidin-4-yl)phenyl)amino)pyrimidin-4-yl)-1H-pyrrole-3-carboxamide] | 250 to 500 nM | 500 to 2500 nM | 500 to 2500 nM
Cc1cn(-c2ccnc(Nc3ccccc3)c2)cc1C(=O)N[C@H](CO)c1cccc(Cl)c1 [Example 183, (S)-N-(1-(3-chlorophenyl)-2-hydroxyethyl)-4-methyl-1-(2-(phenylamino)pyridin-4-yl)-1H-pyrrole-3-carboxamide] | > 2500 nM | > 2500 nM | 500 to 2500 nM
COc1ccc(Nc2ncc(C)c(-n3ccc(C(=O)NC(CO)c4cccc(Cl)c4)c3)n2)cc1OCCCN(C)C (stereo not drawn) [Example 184, N-(1-(3-chlorophenyl)-2-hydroxyethyl)-1-(2-((3-(3-(dimethylamino)propoxy)-4-methoxyphenyl)amino)-5-methylpyrimidin-4-yl)-1H-pyrrole-3-carboxamide] | 250 to 500 nM | 500 to 2500 nM | 500 to 2500 nM
Cc1cnc(Nc2ccc3c(c2)OCC3)nc1-n1ccc(C(=O)NC(CO)c2ccccc2)c1 (stereo not drawn) [Example 185, 1-(2-((2,3-dihydrobenzofuran-6-yl)amino)-5-methylpyrimidin-4-yl)-N-(2-hydroxy-1-phenylethyl)-1H-pyrrole-3-carboxamide] | 250 to 500 nM | 250 to 500 nM | 250 to 500 nM
Cc1cnc(Nc2ccc3c(c2)OCCC3)nc1-n1ccc(C(=O)NC(CO)c2ccccc2)c1 (stereo not drawn) [Example 186, 1-(2-(chroman-7-ylamino)-5-methylpyrimidin-4-yl)-N-(2-hydroxy-1-phenylethyl)-1H-pyrrole-3-carboxamide] | 250 to 500 nM | 500 to 2500 nM | 500 to 2500 nM
Cc1cccc(C(CO)NC(=O)c2ccn(-c3nc(N[C@H]4CCOC4)ncc3C)c2)c1 (stereo partly drawn) [Example 187, N-(2-hydroxy-1-(m-tolyl)ethyl)-1-(5-methyl-2-(((S)-tetrahydrofuran-3-yl)amino)pyrimidin-4-yl)-1H-pyrrole-3-carboxamide] | 500 to 2500 nM | 250 to 500 nM | 250 to 500 nM
O=C(N[C@H](CO)c1cccc(Cl)c1)c1ccn(-c2ccnc(NC3CCOC3)c2)c1 (stereo partly drawn) [Example 188, N-((S)-1-(3-chlorophenyl)-2-hydroxyethyl)-1-(2-((tetrahydrofuran-3-yl)amino)pyridin-4-yl)-1H-pyrrole-3-carboxamide] | > 2500 nM | > 2500 nM | > 2500 nM
Cc1cnc(NCC2CCCO2)nc1-n1ccc(C(=O)N[C@H](CO)c2cccc(Cl)c2)c1 (stereo partly drawn) [Example 190, N-((S)-1-(3-chlorophenyl)-2-hydroxyethyl)-1-(5-methyl-2-(((tetrahydrofuran-2-yl)methyl)amino)pyrimidin-4-yl)-1H-pyrrole-3-carboxamide] | > 2500 nM | > 2500 nM | 250 to 500 nM
Cc1cnc(NCc2cccnc2)cc1-n1ccc(C(=O)NC(CO)c2ccc(F)c(Cl)c2)c1 (stereo not drawn) [Example 193, N-(1-(3-chloro-4-fluorophenyl)-2-hydroxyethyl)-1-(5-methyl-2-((pyridin-3-ylmethyl)amino)pyridin-4-yl)-1H-pyrrole-3-carboxamide] | > 2500 nM | > 2500 nM | 500 to 2500 nM
Cc1cnc(Nc2ccc(F)c(C(=O)N(C)C)c2)nc1-n1ccc(C(=O)NC(CO)c2cccc(Cl)c2)c1 (stereo not drawn) [Example 194, N-(1-(3-chlorophenyl)-2-hydroxyethyl)-1-(2-((3-(dimethylcarbamoyl)-4-fluorophenyl)amino)-5-methylpyrimidin-4-yl)-1H-pyrrole-3-carboxamide] | 500 to 2500 nM | 250 to 500 nM | 250 to 500 nM
Cc1cnc(NC2CCCCC2)nc1-n1ccc(C(=O)NC(CO)c2cccc(Cl)c2)c1 (stereo not drawn) [Example 195, N-(1-(3-chlorophenyl)-2-hydroxyethyl)-1-(2-(cyclohexylamino)-5-methylpyrimidin-4-yl)-1H-pyrrole-3-carboxamide] | 500 to 2500 nM | 100 to 250 nM | 100 to 250 nM
CNC(=O)c1ccc(Nc2ncc(C)c(-n3ccc(C(=O)NC(CO)c4cccc(Cl)c4)c3)n2)cc1 (stereo not drawn) [Example 196, N-(1-(3-chlorophenyl)-2-hydroxyethyl)-1-(5-methyl-2-((4-(methylcarbamoyl)phenyl)amino)pyrimidin-4-yl)-1H-pyrrole-3-carboxamide] | 500 to 2500 nM | 500 to 2500 nM | 500 to 2500 nM
CCC(C)Nc1ncc(C)c(-n2ccc(C(=O)N[C@H](CO)c3ccc(F)c(Cl)c3)c2)n1 (stereo partly drawn) [Example 197, 1-(2-(sec-butylamino)-5-methylpyrimidin-4-yl)-N-((S)-1-(3-chloro-4-fluorophenyl)-2-hydroxyethyl)-1H-pyrrole-3-carboxamide] | > 2500 nM | 500 to 2500 nM | 250 to 500 nM
Cc1cnc(Nc2ccc3c(c2)CC(=O)N3)nc1-n1ccc(C(=O)NC(CO)c2cccc(Cl)c2)c1 (stereo not drawn) [Example 198, N-(1-(3-chlorophenyl)-2-hydroxyethyl)-1-(5-methyl-2-((2-oxoindolin-5-yl)amino)pyrimidin-4-yl)-1H-pyrrole-3-carboxamide] | 500 to 2500 nM | 500 to 2500 nM | 500 to 2500 nM
Cc1cnc(NC2CCCN(C)C2)nc1-n1ccc(C(=O)NC(CO)c2cccc(Cl)c2)c1 (stereo not drawn) [Example 199, N-(1-(3-chlorophenyl)-2-hydroxyethyl)-1-(5-methyl-2-((1-methylpiperidin-3-yl)amino)pyrimidin-4-yl)-1H-pyrrole-3-carboxamide] | > 2500 nM | 500 to 2500 nM | 500 to 2500 nM
Cc1cnc(NC2CCCCC2O)nc1-n1ccc(C(=O)NC(CO)c2ccc(F)c(Cl)c2)c1 (stereo not drawn) [Example 202, N-(1-(3-chloro-4-fluorophenyl)-2-hydroxyethyl)-1-(2-((2-hydroxycyclohexyl)amino)-5-methylpyrimidin-4-yl)-1H-pyrrole-3-carboxamide] | > 2500 nM | 500 to 2500 nM | > 2500 nM
Cc1cnc(N[C@H]2CCOC2)nc1-n1ccc(C(=O)NC(CO)c2ccc(F)cc2)c1 (stereo partly drawn) [Example 204, N-(1-(4-fluorophenyl)-2-hydroxyethyl)-1-(5-methyl-2-(((S)-tetrahydrofuran-3-yl)amino)pyrimidin-4-yl)-1H-pyrrole-3-carboxamide] | > 2500 nM | 500 to 2500 nM | 500 to 2500 nM
Cc1cnc(Nc2ccc(N3CCOCC3)cc2)nc1-n1ccc(C(=O)NC(CO)c2cccc(Cl)c2)c1 (stereo not drawn) [Example 205, N-(1-(3-chlorophenyl)-2-hydroxyethyl)-1-(5-methyl-2-((4-morpholinophenyl)amino)pyrimidin-4-yl)-1H-pyrrole-3-carboxamide] | 250 to 500 nM | 100 to 250 nM | 100 to 250 nM
NCC(NC(=O)c1ccn(-c2ccnc(Nc3ccc(F)cc3)c2)c1)c1ccccc1 (stereo not drawn) [Example 206, N-(2-amino-1-phenylethyl)-1-(2-((4-fluorophenyl)amino)pyridin-4-yl)-1H-pyrrole-3-carboxamide] | > 2500 nM | 500 to 2500 nM | 500 to 2500 nM
Cc1cccc([C@@H](CO)NC(=O)c2ccn(-c3nc(N[C@H]4CCOC4)ncc3C)c2)n1 [Example 207, N-((S)-2-hydroxy-1-(6-methylpyridin-2-yl)ethyl)-1-(5-methyl-2-(((S)-tetrahydrofuran-3-yl)amino)pyrimidin-4-yl)-1H-pyrrole-3-carboxamide] | > 2500 nM | 250 to 500 nM | 500 to 2500 nM
Cc1cnc(N[C@H]2CCOC2)nc1-n1ccc(C(=O)N(C)C(CO)c2cccc(Cl)c2)c1 (stereo partly drawn) [Example 212, N-(1-(3-chlorophenyl)-2-hydroxyethyl)-N-methyl-1-(5-methyl-2-(((S)-tetrahydrofuran-3-yl)amino)pyrimidin-4-yl)-1H-pyrrole-3-carboxamide] | > 2500 nM | 500 to 2500 nM | 500 to 2500 nM
Cc1cnc(Nc2ccc(F)c(N3CCNCC3)c2)nc1-n1ccc(C(=O)NC(CO)c2cccc(Cl)c2)c1 (stereo not drawn) [Example 213, N-(1-(3-chlorophenyl)-2-hydroxyethyl)-1-(2-((4-fluoro-3-(piperazin-1-yl)phenyl)amino)-5-methylpyrimidin-4-yl)-1H-pyrrole-3-carboxamide] | 250 to 500 nM | 100 to 250 nM | 250 to 500 nM

— patent US11925629B2, “Heterocyclic inhibitors of ERK1 and ERK2 and their use in the treatment of cancer” (Asana Biosciences, LLC, priority 2015, dated 2024)
